Article PMC7403393 (Scientific Reports, 2020)
Where a name gives a salt, the structure may show the parent alone. Read-outs that look alike come from different tables or passages of the source.

Columns and labels:
[1] = system: SARS-CoV-2; assay: EC50/EC90 determination by quantification of viral genome (real-time RT-PCR) in VeroE6 cells; type: cell-based, SARS-CoV-2 strain BavPat1; conditions: for activity at 40 µM: VeroE6, 40 µM
[2] = system: VeroE6 cells; conditions: VeroE6, no virus, CellTiter Blue
[3] = system: SARS-CoV-2
[4] = in vitro; conditions: African green monkey
[5] = system: SARS-CoV-2; conditions: 5 and 10 µM
[6] = system: SARS-CoV-2; assay: microbe, parasite or virus in culture; conditions: Severe acute respiratory syndrome coronavirus 2, Vero C1008, read-out: cell viability
[7] = system: VeroE6 cells; design: method as in PMID 29642580; conditions: cited from earlier work
[8] = system: SARS-CoV-2; design: method as in earlier work; conditions: cited from earlier work
[9] = system: SARS-CoV-2; assay: microbe, parasite or virus in culture; conditions: Severe acute respiratory syndrome coronavirus 2, Caco-2, read-out: replication inhibition
[10] = VeroE6, viral RNA by RT-qPCR, 2 days, read-out: EC50
[11] = VeroE6, viral RNA by RT-qPCR, 2 days, read-out: EC90
[12] = selectivity index CC50/EC50, VeroE6
[13] = 10 µM compound, VeroE6, MOI 0.002, 3 days after infection, normalized cell viability relative to 10 µM arbidol
[14] = Severe acute respiratory syndrome coronavirus 2, Vero C1008, 48 h, VeroE6, viral RNA by RT-qPCR, 2 days, read-out: EC50
[15] = Severe acute respiratory syndrome coronavirus 2, Vero C1008, 48 h
[16] = Severe acute respiratory syndrome coronavirus 2, Vero C1008, 48 h, VeroE6, viral RNA by RT-qPCR, 2 days
[17] = Severe acute respiratory syndrome coronavirus 2, Vero C1008, 48 h, VeroE6, viral RNA by RT-qPCR, 2 days, read-out: EC90

Compound: Cl.Clc1ccc(Cn2c(CN3CCCC3)nc3ccccc32)cc1 [Clemizole hydrochloride]
- EC50 [1, 10]: 23.9 µM
- EC90 [1, 11]: 38.2 µM
- SI [1, 12]: > 1.7
- CC50 [2]: > 40 µM
- Inhibition index [3, 13]: 1.01

Compound: CC(C)(C)NC[C@H](O)c1ccc(O)c(CO)c1 [Levalbuterol]
- EC50 [1, 14]: ≥ 40 µM

Compound: Spiramycin
- SI [1]: > 5
- EC50 [1, 10]: 7.95 µM
- EC90 [1, 11]: 10.5 µM
- CC50 [2]: > 40 µM

Compound: C=C1C[C@@H]2[C@H](CC[C@]3(C)C(=O)CC[C@@H]23)[C@@]2(C)C=CC(=O)C=C12 [Exemestane]
- EC90 [1, 15]: 9.86 µM
- EC50 [1, 16]: 7.51 µM
- Inhibition index [3, 13]: 1.10
- CC50 at 2 days [4]: > 40 µM
- antiviral effect in Caco-2 cells (in words) [5]: Arbidol-like result

Compound: OCCN1CCN(CCCN2c3ccccc3C=Cc3ccccc32)CC1 [Opipramol dihydrochloride]
- EC50 [1, 14]: 5.05 µM
- EC90 [1, 17]: 5.97 µM
- SI [1, 12]: > 7.9
- Inhibition index [3, 13]: 1.05
- CC50 at 2 days ([4]; VeroE6 cells (no virus)): > 40 µM

Compound: C=C[C@H]1C[N@@]2CC[C@H]1C[C@@H]2[C@@H](O)c1ccnc2ccc(OC)cc12 [Quinidine hydrochloride]
- SI [1]: > 7.8
- EC50 [1, 14]: 5.11 µM
- EC90 [1, 17]: > 40 µM
- CC50 at 2 days ([4]; VeroE6 cells (no virus)): > 40 µM

Compound: CC(=O)[C@H]1CC[C@H]2[C@@H]3CC=C4C[C@@H](O)CC[C@]4(C)[C@H]3CC[C@]12C [Pregnenolone]
- Inhibition index [3, 13]: 1.66

Compound: COc1ccc(CC(C)NCC(O)c2ccc(O)c(NC=O)c2)cc1 (centres unmarked) [Formoterole]
- EC50 [1, 10]: ≥ 40 µM

Compound: O=C([O-])c1ccccc1-c1c2cc(Br)c(=O)cc-2oc2[c]([Hg+])c([O-])c(Br)cc12.[Na+].[Na+].[OH-] [Merbromin disodium salt]
- Inhibition index [3]: 1.12

Compound: C=CCOc1ccccc1OCC(O)CNC(C)C (centres unmarked) [Oxprenolol hydrochloride]
- EC50 [1, 14]: 20.2 µM
- EC90 [1, 17]: > 40 µM
- SI [1, 12]: > 2
- CC50 at 2 days ([4]; VeroE6 cells (no virus)): > 40 µM

Compound: CCCCOc1cc(C(=O)OCCN(CC)CC)ccc1N [Benoxinate hydrochloride]
- Inhibition index [3, 13]: 1.19

Compound: Nc1c2c(nc3ccccc13)CCCC2 [Tacrine hydrochloride]
- Inhibition index [3, 13]: 1.44

Compound: CNCc1cc(-c2ccccc2F)n(S(=O)(=O)c2cccnc2)c1 [Vonoprazan]
- EC90 [1, 15]: > 40 µM
- EC50 [1, 16]: > 30 µM
- EC50 [1, 10]: 38.6 µM
- SI [1, 12]: > 1
- CC50 at 2 days [4]: > 40 µM

Compound: COc1ncnc(NS(=O)(=O)c2ccc(N)cc2)c1OC [Sulfadoxine]
- EC90 [1, 15]: > 40 µM
- EC50 [1, 16]: > 30 µM
- EC50 [1, 10]: 35.4 µM
- SI [1, 12]: > 1.13
- CC50 at 2 days [4]: > 40 µM
- antiviral effect in Caco-2 cells (in words) [5]: Arbidol-like result

Compound: CCCc1nc(C(C)(C)O)c(C(=O)O)n1Cc1ccc(-c2ccccc2-c2nnn[nH]2)cc1 [Olmesartan]
- EC50 [1, 14]: ≥ 40 µM
- activity at 40 µM [1]: lack of activity

Compound: COC(c1ccccc1)(c1ccccc1)[C@H](Oc1nc(C)cc(C)n1)C(=O)O [Ambrisentan]
- EC50 [1, 14]: ≥ 40 µM
- activity at 40 µM [1]: lack of activity

Compound: C[C@@H]1CCO[C@H]2Cn3cc(C(=O)NCc4ccc(F)cc4F)c(=O)c(O)c3C(=O)N12 [Dolutegravir]
- EC90 [1, 15]: > 40 µM
- EC50 [1, 14]: 22 µM
- SI [1, 12]: > 1.8
- CC50 at 2 days ([4]; VeroE6 cells (no virus)): > 40 µM

Compound: CCOC(=O)c1c(CSc2ccccc2)n(C)c2cc(Br)c(O)c(CN(C)C)c12 [Arbidol]
- EC50 [1, 14]: 10.7 µM
- EC90 [1, 17]: 15.2 µM
- SI [1, 12]: > 3.7
- viability at 10 µM [6]: 70 to 90%
- antiviral effect in Caco-2 cells (in words) [5]: weaker than the one observed in VeroE6
- CC50 [7]: > 40 µM

Compound: CC(C)CN(C[C@@H](O)[C@H](Cc1ccccc1)NC(=O)O[C@H]1CO[C@H]2OCC[C@H]21)S(=O)(=O)c1ccc(N)cc1 [Darunavir]
- EC50 [1, 14]: ≥ 40 µM

Compound: C[C@]12CC[C@H](O)C[C@@H]1CC[C@@H]1[C@@H]2CC[C@]2(C)C(=O)CC[C@@H]12 [Epiandrosterone]
- Inhibition index [3, 13]: 1.07

Compound: CCOc1nc2cccc(C(=O)O)c2n1Cc1ccc(-c2ccccc2-c2nnn[nH]2)cc1 [Candesartan]
- activity at 40 µM [1]: lack of activity

Compound: CNCC(O)c1ccc(OC(=O)C(C)(C)C)c(OC(=O)C(C)(C)C)c1 (centres unmarked) [Dipivefrin hydrochloride]
- Inhibition index [3, 13]: 1.01

Compound: CCCCOc1ccc(C(=O)CCN2CCCCC2)cc1 [Dyclonine hydrochloride]
- EC50 [1, 14]: 10 µM
- EC90 [1, 17]: > 40 µM
- SI [1, 12]: > 4
- CC50 at 2 days ([4]; VeroE6 cells (no virus)): > 40 µM
- antiviral effect in Caco-2 cells (in words) [5]: Arbidol-like result

Compound: CCN(CCO)CCCC(C)Nc1ccnc2cc(Cl)ccc12 (centres unmarked) [Hydroxychloroquine sulfate]
- EC50 [1, 14]: 4.17 µM
- EC90 [1, 17]: 25.5 µM
- antiviral effect in a macaque model [8]: no antiviral effect
- CC50 at 2 days [4]: > 40 µM

Compound: COc1ccccc1OCC(O)CN1CCN(CC(=O)Nc2c(C)cccc2C)CC1 (centres unmarked) [Ranolazine]
- EC50 [1, 14]: ≥ 40 µM

Compound: CCC(CC)COC(=O)[C@H](C)N[P@](=O)(OC[C@H]1O[C@@](C#N)(c2ccc3c(N)ncnn23)[C@H](O)[C@@H]1O)Oc1ccccc1 [Remdesivir]
- inhibition at 5 µM [9]: 100%
- inhibition at 10 µM [9]: 100%

Compound: CN1CCN2c3ncccc3Cc3ccccc3C2C1 (centres unmarked) [Mirtazapine]
- Inhibition index [3, 13]: 1.03

Compound: CC[C@H]1OC(=O)[C@H](C)[C@@H](O[C@H]2C[C@@](C)(OC)[C@@H](O)[C@H](C)O2)[C@H](C)[C@@H](O[C@@H]2O[C@H](C)C[C@H](N(C)C)[C@H]2O)[C@](C)(O)C[C@@H](C)CN(C)[C@H](C)[C@@H](O)[C@]1(C)O [Azithromycine]
- EC50 [1, 14]: 2.12 µM
- EC90 [1, 17]: 8.65 µM
- SI [1, 12]: > 19
- antiviral effect in a macaque model [8]: no antiviral effect
- CC50 at 2 days ([4]; VeroE6 cells (no virus)): > 40 µM

Compound: O=C(CCCN1CCC2(CC1)C(=O)NCN2c1ccccc1)c1ccc(F)cc1 [Spiperone]
- EC90 [1, 17]: 13.1 µM
- CC50 at 2 days [4]: > 40 µM

Compound: CN(C)CCCN1c2ccccc2Sc2ccccc21 [Promazine hydrochloride]
- Inhibition index [3, 13]: 1.16

Compound: CCCCC[C@H](O)/C=C/[C@H]1[C@H](O)CC(=O)[C@@H]1CCCCCCC(=O)O [Alprostadil]
- EC90 [1, 15]: > 40 µM
- EC50 [1, 16]: 5.39 µM
- SI [1, 12]: > 7.4
- CC50 at 2 days ([4]; VeroE6 cells (no virus)): > 40 µM

Compound: CCN(CC)CCCC(C)Nc1ccnc2cc(Cl)ccc12 (centres unmarked) [Chloroquine diphosphate]
- Inhibition index [3, 13]: 1.35

Compound: COc1ccc2[nH]c([S+]([O-])Cc3ncc(C)c(OC)c3C)nc2c1 (centres unmarked) [Omeprazole]
- EC50 [1, 14]: 17.1 µM
- EC90 [1, 17]: 38 µM
- CC50 at 2 days ([4]; VeroE6 cells (no virus)): > 40 µM

Compound: Cn1nnnc1SCC1=C(C(=O)O)N2C(=O)[C@@H](NC(=O)[C@H](O)c3ccccc3)[C@H]2SC1 [Cefamandole]
- EC50 [1, 14]: ≥ 40 µM
